pIC50: −log10 of the molar value. Like-named read-outs stand apart in the source and are kept apart here.
Tests used:
[1] = molecular target: T1, récepteur estrogène de l'utérus de souris (Mus musculus, UniProt P19785); assay: Relative binding affinity (ARL) for the estrogen receptor, mouse uterus cytosol, displacement of tritiated estradiol; settings: ARL = 100 (CH)/(CX), estradiol = 100, head prints 0°C; for Récepteurs Oestrogène Temps d'incubation à 0°C 5H (affinité relative de liaison, ARL): incubation 5H (second time); for Récepteurs Oestrogène Temps d'incubation à 0°C 2H (affinité relative de liaison, ARL): incubation 2H
T1 construct: les utérus sont prélevés puis homogénéisés a 0°C; from tissue; host or cells: uterus of immature female mice (18-21 days), cytosol (105 000 g supernatant)
T1 sequence (P19785 1-599): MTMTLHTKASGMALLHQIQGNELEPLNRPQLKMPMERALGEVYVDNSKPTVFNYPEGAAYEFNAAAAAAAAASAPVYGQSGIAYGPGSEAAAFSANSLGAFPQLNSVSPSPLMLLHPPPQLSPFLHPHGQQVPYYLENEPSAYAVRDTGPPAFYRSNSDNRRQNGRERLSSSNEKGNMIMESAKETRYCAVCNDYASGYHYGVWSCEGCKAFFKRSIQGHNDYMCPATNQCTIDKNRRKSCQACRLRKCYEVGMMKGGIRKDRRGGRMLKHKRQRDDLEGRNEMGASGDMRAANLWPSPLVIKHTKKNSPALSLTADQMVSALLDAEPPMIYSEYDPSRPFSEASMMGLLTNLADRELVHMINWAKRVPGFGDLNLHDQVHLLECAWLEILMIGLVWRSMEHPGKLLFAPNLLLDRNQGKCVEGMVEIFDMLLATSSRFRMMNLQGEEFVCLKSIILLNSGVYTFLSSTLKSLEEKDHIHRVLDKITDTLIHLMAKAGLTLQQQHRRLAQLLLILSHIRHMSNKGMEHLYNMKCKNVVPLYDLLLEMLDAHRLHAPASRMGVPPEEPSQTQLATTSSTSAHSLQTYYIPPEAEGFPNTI
Protocol: Des souris femelles impubères âgées de 18 a 21 jours sont sacrifiées, les utérus sont prélevés puis homogénéisés a 0°C à l'aide d'un Potter teflon-verre dans une solution tamponnée TS (Tris 10 mM, saccharose 0,25 M, HCl pH 7,4 (1 g de tissu pour 25 ml de TS). L'homogénat est ensuite ultracentrifugé (105 000 g x 90 mn) à 0°C. Des aliquotes du surnageant ainsi obtenu, sont incubées a 0°C ou a 25°C pendant un temps (t) avec une concentration constante (T) d'estradiol tritié en présence de concentrations croissantes (0 - 1000.10^-9 M) soit d'estradiol froid, soit du produit froid a tester. La concentration d'estradiol tritié lié (B) est ensuite mesurée dans chaque incubat par la technique d'adsorption au charbon-dextran.
Le calcul de l'affinité relative de liaison (ARL) est identique pour tous les récepteurs.
On trace les 2 courbes suivantes : le pourcentage de l'hormone tritiée liée (B)/(T) [formula] en fonction du logarithme de la concentration de l'hormone de référence froide et (B)/(T) [formula] en fonction du logarithme de la concentration du produit froid testé.
On détermine la droite d'équation I50 = ((B)/(T)max +(B)/(T)min)/2. [formula] (B)/(T) [formula] max = Pourcentage de l'hormone tritiée liée pour une incubation de cette hormone tritiée à la concentration (T). (B)/(T) [formula] min = Pourcentage de l'hormone tritiée liée pour une incubation de cette hormone tritiée à la concentration (T) en présence d'un grand excès d'hormone froide (2500.10^-9M).
Les intersections de la droit I50 et des courbes permettent d'évaluer les concentrations de l'hormone de référence froide (CH) et du produit froid testé (CX) qui inhibent de 50 % la liaison de l'hormone tritiée sur le récepteur.
L'affinité relative de liaison (ARL) du produit testé est déterminée par l'équation ARL = 100((CH))/((CX)). [formula]

[2] = tested on: cellules tumorales mammaires MCF-7; assay: Anti-proliferative activity on growth of MCF-7 mammary tumour cells (DNA assay with DABA); assay type: cell-based; settings: Homo sapiens, MCF7, 144 h, read-out: CI50 (concentration qui inhibe de 50 % la croissance des cellules MCF7)
Protocol: Les lignées MCF-7 sont maintenues en culture en milieu SVF(1) à 37°C en atmosphère humide contenant 5 % CO2. Les cellules à subconfluence sont récoltées par trypsination (trypsine 0,05 %, EDTA 0,02 %) puis rincées par centrifugation douce. Un échantillon des cellules en suspension est compté sur cellule de Malassez.
Les cellules resuspendues dans le milieu SVF sont ensemencées à raison de 30.000 cellules par puits dans des plaques multipuits (24 puits de 2,5 cm^2). Vingt quatre heures après l'ensemencement (JO), le produit à tester est ajouté au milieu en solution éthanolique (concentration finale en éthanol : 0,1 %), à la concentration de 10^-12 à 10^-6M, les puits contrôles recevant la même concentration en éthanol. Les milieux sont renouvelés toutes les 48 heures. En fin d'expérience (J6), le milieu est aspiré et les cellules sont immédiatement fixées par 150 microlitres de méthanol afin de doser l'ADN.
L'activité anti-proliférative des produits est évaluée par leur capacité à inhiber l'augmentation d'ADN.
L'ADN est dosé par une méthode fluorimétrique utilisant le DABA (Acide 3,5 diaminobenzoïque) (2) : 150 microlitres de DABA sont ajoutés dans chaque puits; les plaques sont alors incubées 45 mn à 56°C, puis 2 ml d'HCl 1N sont ajoutés. La fluorescence est mesurée à l'aide d'un fluorimètre (longueur d'onde excitatrice : 408 nm, longueur d'onde d'émission : 510 nm).
La quantité d'ADN par puits est évaluée par rapport à une gamme étalon obtenue en traitant dans les mêmes conditions un standard d'ADN de thymus de veau.
La concentration en nm qui inhibe de 50 % la croissance des cellules MCF7 (CI50) a été déterminée de la manière indiquée ci-dessus : […]

[3] = MCF-7, product 10^-12 to 10^-6M, 6 days (J6), DNA measured

| Récepteurs Oestrogène Temps d'incubation à 0°C 5H (affinité relative de liaison, ARL) [1] | pIC50 [2, 3] | Récepteurs Oestrogène Temps d'incubation à 0°C 2H (affinité relative de liaison, ARL) [1] | Récepteurs Oestrogène Temps d'incubation à 0°C 5H (affinité relative de liaison, ARL) ([1]; listed as exemple 14) | Compound | pIC50 [2] |
| --- | --- | --- | --- | --- | --- |
| 20 | 10.52 | – | – | CCCCN(C)C(=S)COCCCCCOc1ccc([C@H]2C[C@]3(C)[C@@H](O)CC[C@H]3[C@@H]3CCc4cc(O)ccc4[C@H]32)cc1 [Exemple 1] | – |
| 29 | 11.15 | 3,3 | – | CCCCN(C)C(=O)COCCCCCCOc1ccc([C@H]2C[C@]3(C)[C@@H](O)CC[C@H]3[C@@H]3CCc4cc(O)ccc4[C@H]32)cc1 [Exemple 6] | – |
| 47 | 10.82 | 2,8 | affinité marquée | C#C[C@]1(O)CC[C@H]2[C@@H]3CCc4cc(O)ccc4[C@H]3[C@@H](CCCCCCCCOCC(=O)N(C)C(C)C)C[C@@]21C [Exemple 14, 2-((8-(3,17béta-dihydroxy19-nor-17alpha-pregna-1,3,5(10)-trien-20-yn-11béta-yl)octyl)oxy)-N-méthyl-N-(1-méthyléthyl)-acétamide] | – |
| 16 | – | – | – | CCCCN(C)C(=S)CSCCCCCOc1ccc([C@H]2C[C@]3(C)[C@@H](O)CC[C@H]3[C@@H]3CCc4cc(O)ccc4[C@H]32)cc1 [Exemple 18] | – |

| Compound | Récepteurs Oestrogène Temps d'incubation à 0°C 5H (affinité relative de liaison, ARL) [1] | pIC50 [2, 3] | Récepteurs Oestrogène Temps d'incubation à 0°C 2H (affinité relative de liaison, ARL) [1] | Récepteurs Oestrogène Temps d'incubation à 0°C 5H (affinité relative de liaison, ARL) ([1]; listed as exemple 14) | pIC50 [2] |
| --- | --- | --- | --- | --- | --- |
| CCCCN(C)C(=S)CCCCCCCOc1ccc([C@H]2C[C@]3(C)[C@@H](O)CC[C@H]3[C@@H]3CCc4cc(O)ccc4[C@H]32)cc1 [Exemple 2, N-butyl-8-(4-(3,17béta-dihydroxy-estra-1,3,5(10)-trien-11béta-yl)phénoxy)-N-méthyl-octanethioamide] | 16 | 10.46 | – | – | – |
| CN(CC(F)(F)C(F)(F)C(F)(F)F)C(=O)CCCCCCCOc1ccc([C@H]2C[C@]3(C)[C@@H](O)CC[C@H]3[C@@H]3CCc4cc(O)ccc4[C@H]32)cc1 [Exemple 5, 8-(4-(3,17béta-dihydroxy-estra-1,3,5(10)-trien-11béta-yl)phénoxy)-N-(2,2,3,3,4,4,4-heptafluorobutyl)-N-méthyl-octanamide] | 23 | – | 0 | – | 10.70 |
| CCCCN(C)C(=O)CSCCCCCc1ccc([C@H]2C[C@]3(C)[C@@H](O)CC[C@H]3[C@@H]3CCc4cc(O)ccc4[C@H]32)cc1 [Exemple 9, N-butyl-2-((5-(4-(3,17béta-dihydroxy-estra-1,3,5(10)-trien-11béta-yl)phényl)pentyl)thio)-N-méthyl-acétamide] | 11,7 | 11.05 | – | – | – |

From patent EP0471612B1, “New steroids having an amide substituted group in the 11-beta position, their preparation, their use as medicines and pharmaceutical composition thereof” (ROUSSEL UCLAF, priority 1990, dated 1992)
